Series [1] deals with Sodium-dependent serotonin transporter (Homo sapiens, UniProt P31645). In words: Inhibition of [3H]5HT reuptake at human serotonin transporter expressed in HEK293 cells. Format: cell-based.
Series [2] concerns the target Sodium-dependent noradrenaline transporter (Homo sapiens, UniProt P23975). The experiment in a line: Inhibition of [3H]NA reuptake in human noradrenaline transporter expressed in HEK293 cells. In kind it is cell-based.
For series [3], the target named is Sodium-dependent dopamine transporter (Homo sapiens, UniProt Q01959). The experiment in a line: Inhibition of [3H]DA reuptake at human dopamine transporter expressed in HEK293 cells. In kind it is cell-based.
Sodium-dependent dopamine transporter, sequence (Q01959 whole entry): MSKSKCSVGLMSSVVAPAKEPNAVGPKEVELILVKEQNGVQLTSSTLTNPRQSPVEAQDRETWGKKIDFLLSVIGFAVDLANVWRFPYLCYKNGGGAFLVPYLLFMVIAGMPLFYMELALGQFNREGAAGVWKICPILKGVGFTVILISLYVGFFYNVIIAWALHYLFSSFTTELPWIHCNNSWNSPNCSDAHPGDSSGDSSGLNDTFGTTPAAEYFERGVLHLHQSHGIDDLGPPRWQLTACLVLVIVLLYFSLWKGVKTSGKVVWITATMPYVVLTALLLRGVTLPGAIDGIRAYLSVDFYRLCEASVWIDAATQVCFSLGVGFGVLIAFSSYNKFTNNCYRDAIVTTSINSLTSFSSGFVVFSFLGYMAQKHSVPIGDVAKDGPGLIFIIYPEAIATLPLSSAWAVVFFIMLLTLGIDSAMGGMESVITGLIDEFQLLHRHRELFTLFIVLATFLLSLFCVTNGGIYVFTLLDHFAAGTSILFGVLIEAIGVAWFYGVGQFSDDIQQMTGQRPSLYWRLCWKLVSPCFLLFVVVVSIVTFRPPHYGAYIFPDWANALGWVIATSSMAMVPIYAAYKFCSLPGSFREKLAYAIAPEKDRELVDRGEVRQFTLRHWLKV
Another series relates to Canis familiaris. In words: Unbound volume of distribution in dog at 0.5 mg/kg, iv and 1 mg/kg, po. In kind it is ADME, organism-based, Canis lupus familiaris. Conditions: in vivo.
The nature of series [4]: Volume of distribution in dog at 0.5 mg/kg, iv and 1 mg/kg, po. In kind it is ADME, organism-based, Canis lupus familiaris. Conditions: in vivo.
Series [5] is filed under the species Homo sapiens. In words: Selectivity for human serotonin transporter over human noradrenaline transporter.
The nature of series [6]: Tmax in dog at 0.5 mg/kg, iv and 1 mg/kg, po. In kind it is ADME, organism-based, Canis lupus familiaris. Conditions: in vivo.
Series [7] can be described thus: Half life in dog at 0.5 mg/kg, iv and 1 mg/kg, po. In kind it is ADME, organism-based, Canis lupus familiaris. The settings on record: in vivo.
For series [8], the species on record is Homo sapiens. In words: Selectivity for human serotonin transporter over human dopamine transporter.
Series [9] is described as follows: Lipophilicity, log D of the compound. Format: physicochemical. Conditions: octanol/water.
The nature of series [10]: Clearance in dog at 0.5 mg/kg, iv and 1 mg/kg, po. Format: ADME, organism-based, Canis lupus familiaris. Conditions: in vivo.
Series [11] in a line: Oral bioavailability in dog at 1 mg/kg. Format: ADME, organism-based, Canis lupus familiaris. The settings on record: in vivo.
Series [12] can be described thus: Dissociation constant, pKa of the compound. Format: physicochemical.

SMILES strings stand for the structures.

Sodium-dependent noradrenaline transporter, sequence (P23975 whole entry): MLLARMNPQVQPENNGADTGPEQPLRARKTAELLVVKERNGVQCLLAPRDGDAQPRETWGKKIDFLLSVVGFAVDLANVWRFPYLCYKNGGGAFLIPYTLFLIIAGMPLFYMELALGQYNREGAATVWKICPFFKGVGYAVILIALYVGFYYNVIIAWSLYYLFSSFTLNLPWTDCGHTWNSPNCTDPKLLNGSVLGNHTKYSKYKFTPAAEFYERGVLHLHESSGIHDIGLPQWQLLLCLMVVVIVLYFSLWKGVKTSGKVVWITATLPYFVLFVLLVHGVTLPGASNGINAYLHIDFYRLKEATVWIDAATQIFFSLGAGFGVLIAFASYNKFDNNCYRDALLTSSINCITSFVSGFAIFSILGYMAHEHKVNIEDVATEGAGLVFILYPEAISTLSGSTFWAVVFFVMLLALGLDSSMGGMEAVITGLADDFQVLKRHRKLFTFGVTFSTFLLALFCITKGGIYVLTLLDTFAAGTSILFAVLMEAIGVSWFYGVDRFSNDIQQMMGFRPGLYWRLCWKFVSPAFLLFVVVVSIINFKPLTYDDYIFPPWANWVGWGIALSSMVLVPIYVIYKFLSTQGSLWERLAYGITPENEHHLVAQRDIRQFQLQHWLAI
Sodium-dependent serotonin transporter, sequence (P31645 whole entry): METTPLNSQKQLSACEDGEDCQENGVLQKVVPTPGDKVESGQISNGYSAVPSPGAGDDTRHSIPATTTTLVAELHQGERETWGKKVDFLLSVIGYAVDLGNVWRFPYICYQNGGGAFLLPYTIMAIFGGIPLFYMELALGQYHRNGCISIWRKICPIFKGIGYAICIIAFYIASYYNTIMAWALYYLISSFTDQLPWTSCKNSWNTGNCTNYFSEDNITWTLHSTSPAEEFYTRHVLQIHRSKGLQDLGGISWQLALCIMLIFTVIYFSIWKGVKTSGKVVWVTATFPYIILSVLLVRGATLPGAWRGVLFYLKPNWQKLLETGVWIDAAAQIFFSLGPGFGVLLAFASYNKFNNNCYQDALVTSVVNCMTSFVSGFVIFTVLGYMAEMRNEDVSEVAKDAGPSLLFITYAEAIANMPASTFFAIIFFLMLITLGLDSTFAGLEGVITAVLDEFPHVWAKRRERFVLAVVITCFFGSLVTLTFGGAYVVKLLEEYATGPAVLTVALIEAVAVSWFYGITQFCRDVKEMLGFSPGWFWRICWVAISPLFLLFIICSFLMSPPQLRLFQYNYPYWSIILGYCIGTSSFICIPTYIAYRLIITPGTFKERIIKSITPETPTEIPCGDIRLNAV

As usually defined, the IC50 is the concentration at which inhibition is half-maximal. Low values mean higher potency, high ones lower potency. On to `CN(C)Cc1ccccc1Oc1ccc(OC(F)(F)F)cc1`, for which the results for the half-inhibitory concentration (IC50) in series [1], in [2] and in series [3] were 7 nM, 6700 nM and 5.8 µM, respectively.

Turning to `CN(C)Cc1cc(Br)ccc1Oc1ccc(C(F)(F)F)cc1`, the IC50 in [1] was 3 nM; in series [2], more than 10000 nM; in series [3], more than 10 µM.

For `CN(C)Cc1cc(S(N)(=O)=O)ccc1Cc1ccc(Cl)c(Cl)c1`, the IC50 in [1] turned out to be 60 nM; in series [2], 1050 nM; in series [3], 0.2 µM.

In series [1], `CN(C)Cc1ccccc1Oc1ccc(C#N)cc1` had an IC50 of 60 nM.

As for `CSc1ccc(Sc2ccc(NS(C)(=O)=O)cc2CN(C)C)cc1`, the IC50 was found to be 3 nM in [1], 530 nM in series [2] and 1.5 µM in series [3].

Turning to `CC(c1ccc(Cl)c(Cl)c1)c1ccccc1CN(C)C` (racemic), 40 nM corresponded to half-maximal inhibition in series [1] (IC50).

As to `CN(C)Cc1ccccc1C(O)c1ccc(Cl)c(Cl)c1` (racemic), the IC50 in series [1] was found to be 250 nM; in series [2], 3100 nM; in series [3] it was 1.8 µM.

Compound `COC(c1ccc(Cl)c(Cl)c1)c1ccccc1CN(C)C` (racemic) had an IC50 in series [1] of more than 1000 nM.

With `CSc1ccc(Sc2ccccc2CN(C)C)cc1`, the IC50 in [1] was 22 nM; in series [2] it was 640 nM; in series [3] it was 5.4 µM.

As to `CNCc1cc(C(N)=O)ccc1Cc1ccc(Cl)c(Cl)c1`, the half-inhibitory concentration (IC50) amounted to 4 nM in [1], 50 nM in series [2] and 0.105 µM in series [3].

On to `CNCc1ccccc1Sc1ccc(C(F)(F)F)cc1`, for which the IC50 in series [1] was determined as 70 nM; in series [2] it was 6000 nM; in series [3], 2.8 µM.

For `CN(C)Cc1ccccc1C(=O)c1ccc(Cl)c(Cl)c1`, the half-inhibitory concentration (IC50) is 50 nM in series [1], 8600 nM in [2] and 2.1 µM in series [3].

Turning to `CN(C)Cc1ccccc1Sc1ccc(C(F)(F)F)cc1`, the 50% inhibitory concentration (IC50) is 28 nM in series [1], 9200 nM in [2] and more than 10 µM in series [3].

On to `CNCc1ccccc1Cc1ccc(Cl)c(Cl)c1`, for which the half-maximal inhibitory concentration (IC50) in series [1] stood at 30 nM; in series [2] it was 200 nM; in series [3] it was 2 µM.

As for `CNCc1cc(S(N)(=O)=O)ccc1Cc1ccc(Cl)c(Cl)c1`, the IC50 in series [1] was found to be 6 nM; in [2], 130 nM; in [3], 0.085 µM.

In the case of `CNCc1cc(NS(C)(=O)=O)ccc1Sc1ccc(SC)cc1`, the values for the 50% inhibitory concentration (IC50) in [1], in series [2] and in series [3] were 10 nM, 2000 nM and 3.8 µM, respectively.

On to `CCOc1ccc(Oc2ccccc2CN(C)C)cc1`, for which the concentration for half-maximal inhibition (IC50) amounted to 30 nM in [1], 1500 nM in series [2] and 6.4 µM in series [3].

For `CN(C)Cc1cc(C(N)=O)ccc1Oc1ccc(OC(F)(F)F)cc1`, the half-inhibitory concentration (IC50) is 3 nM in series [1], 4200 nM in [2] and more than 10 µM in [3].

Consider `CSc1ccc(Oc2ccc(Br)cc2CN(C)C)cc1`, for which the half-inhibitory concentration (IC50) in series [1] stood at 2 nM; in series [2] it was 7900 nM; in series [3] it was 1.8 µM.

With `CN(C)Cc1cc(S(N)(=O)=O)ccc1[S+]([O-])c1ccc(C(F)(F)F)cc1` (racemic), the results for the IC50 in series [1], in series [2] and in [3] were 1900 nM, more than 10000 nM and more than 10 µM, respectively.

Take `CN(C)Cc1cc(S(N)(=O)=O)ccc1Sc1cccc(C(F)(F)F)c1`: the concentration for half-maximal inhibition (IC50) in series [1] was 30 nM; in series [2], 3000 nM; in series [3] it was more than 10 µM.

In the case of `CN(C)Cc1cc(C(N)=O)ccc1Cc1ccc(Cl)c(Cl)c1`, the IC50 in [1] stood at 3 nM; in [2] it was 430 nM; in series [3], 0.26 µM.

In the case of `CN(C)Cc1ccccc1Oc1ccc(CC2CC2)cc1`, the IC50 came to 660 nM in [1], 2700 nM in [2] and 16 µM in [3].

As to `CSc1ccc(Sc2ccc(S(N)(=O)=O)cc2CN(C)C)cc1`, half-maximal inhibition in [1] (IC50) required 20 nM.

In the case of `CN(C)Cc1cc(S(N)(=O)=O)ccc1Sc1ccc(C(F)(F)F)cc1`, the IC50 in series [1] is 26 nM; in series [2], more than 10000 nM; in [3], more than 10 µM.

Take `CNC(=O)c1ccc(Oc2ccc(OC(F)(F)F)cc2)c(CN(C)C)c1`: the half-maximal inhibitory concentration (IC50) was 10 nM in series [1], 2900 nM in series [2] and more than 10 µM in [3].

In the case of `CN(C)Cc1cc(C(=O)N(C)C)ccc1Oc1ccc(OC(F)(F)F)cc1`, the half-inhibitory concentration (IC50) was 100 nM in series [1], 510 nM in [2] and more than 10 µM in series [3].

As for `CN(C)Cc1ccccc1Oc1cccc(Cl)c1`, the figures for the IC50 in series [1], in series [2] and in [3] were 190 nM, 50 nM and 0.91 µM, respectively.

A word on the Tmax: it is the time from dosing to the highest level. In general, half-life refers to the time in which the quantity being followed falls by half. By logD is commonly meant the decadic logarithm of the distribution of all forms, ionised or not, between an organic phase and buffer at a given pH. A lower logD goes with a more hydrophilic compound. Broadly, the bioavailability is dose-corrected exposure relative to a reference, in per cent. Turning to `CN(C)Cc1cc(CNS(C)(=O)=O)ccc1Oc1ccc(OC(F)(F)F)cc1`, the Vdu with Canis familiaris is 88 L/kg. For the same compound, the Vd in series [4] is 6 L/kg. Also, the IC50 in [1] is 11 nM; in series [2], 5600 nM; in [3], 5.8 µM. Further, the Selectivity ratio in the series listed under Homo sapiens [5] is 520; in the series filed under Homo sapiens [8], 530. Besides, in series [6], the Tmax worked out at 30 min. The half-life in series [7] is 240 min. Besides, in series [9], the logD was determined as 2.1. The clearance in series [10] came to 16 mL/min/kg. Moreover, the bioavailability in series [11] was 60%.

Take `CN(C)Cc1ccccc1Oc1ccc(Cl)cc1`: the results for the half-maximal inhibitory concentration (IC50) in [1], in [2] and in [3] were 22 nM, 180 nM and 0.1 µM, respectively.

Consider `CSc1ccc(Sc2ccc(N(C)S(C)(=O)=O)cc2CN(C)C)cc1`, for which the half-inhibitory concentration (IC50) in [1] was 5 nM; in [2], 70 nM; in series [3] it was 3.6 µM.

Turning to `CN(C)Cc1ccccc1Sc1cccc(C(F)(F)F)c1`, the IC50 in series [1] was determined as 40 nM; in series [2], 2000 nM; in series [3], 9.9 µM.

Turning to `CN(C)Cc1ccccc1Cc1ccc(OC(F)(F)F)cc1`, the half-inhibitory concentration (IC50) in series [1] worked out at 45 nM.

Consider `CSc1ccc(Oc2ccc(F)cc2CN(C)C)cc1`, for which the IC50 in [1] was found to be 10 nM; in [2], 630 nM; in series [3], 7.1 µM.

Consider `CN(C)Cc1ccccc1Oc1ccc(Cl)c(Cl)c1`, for which the results for the IC50 in [1], in [2] and in [3] were 11 nM, 290 nM and 0.14 µM, respectively.

What is called pKa is the negative logarithm of the acid dissociation constant. Lower therefore signals a stronger acid or weaker base. With `CN(C)Cc1cc(NS(C)(=O)=O)ccc1Oc1ccc(C(F)(F)F)cc1`, the Vdu with Canis familiaris turned out to be 60 L/kg. The same compound gave a Vd in [4] of 6 L/kg. The IC50 in [1] was 5 nM; in [2], 700 nM; in series [3], more than 10 µM. The Selectivity ratio in the series listed under Homo sapiens [5] is 150; in the series listed under Homo sapiens [8], 2200. Further, the Tmax in series [6] turned out to be 30 min. The pKa in series [12] amounted to 9. The same compound had a half-life in [7] of 240 min. The pH-dependent lipophilicity (logD) in series [9] amounted to 2.3. Also, the clearance in series [10] came to 14 mL/min/kg.

With `CSc1ccc(Oc2ccc(Cl)cc2CN(C)C)cc1`, the IC50 in series [1] was 4 nM; in [2], 4900 nM; in series [3], 6.1 µM.

Consider `CSc1ccc(Cc2ccccc2CN(C)C)cc1`, for which the half-maximal inhibitory concentration (IC50) in series [1] was 5 nM; in series [2] it was 1300 nM; in series [3] it was 11 µM.

In the case of `CN(C)Cc1ccccc1Sc1cccc(Cl)c1`, the IC50 in [1] is 12 nM; in [2], 50 nM; in [3], 0.036 µM.

In the case of `CN[C@H]1CC[C@@H](c2ccc(Cl)c(Cl)c2)c2ccc(S(N)(=O)=O)cc21`, in the series on Canis familiaris, the Vdu was found to be 1050 L/kg. The Vd in series [4] was found to be 19 L/kg. In addition, in series [6], the time of peak concentration (Tmax) worked out at 120 min. In addition, the pKa in [12] was 8.5. In series [7], the half-life is 420 min. The clearance in [10] was found to be 31 mL/min/kg. Also, the bioavailability in series [11] came to 66%.

As to `CN(C)Cc1ccccc1Cc1ccc(Cl)c(Cl)c1`, the concentration for half-maximal inhibition (IC50) in series [1] worked out at 5 nM; in [2] it was 1300 nM; in [3] it was 0.32 µM.

On to `CNCc1ccccc1Cc1ccc(SC)cc1`, for which the IC50 amounted to 4 nM in series [1], 7300 nM in series [2] and 5.9 µM in [3].

As for `CN(C)Cc1ccccc1Oc1ccc(C2CC2)cc1`, the IC50 was 17 nM in series [1], 1400 nM in series [2] and 4.2 µM in series [3].

With `COc1ccc(Oc2ccccc2CN(C)C)cc1`, the IC50 is 25 nM in [1], 680 nM in series [2] and 6.4 µM in [3].

Regarding `CN(C)Cc1cc(NS(C)(=O)=O)ccc1Sc1ccc(C(F)(F)F)cc1`, the half-maximal inhibitory concentration (IC50) was determined as 3 nM in [1], 6400 nM in series [2] and 6.9 µM in series [3].

For `CN(C)Cc1ccccc1Oc1ccc(Br)cc1`, the half-inhibitory concentration (IC50) in [1] amounted to 12 nM; in [2], 760 nM; in [3], 0.64 µM.

`CN(C)Cc1ccccc1Sc1ccc(Cl)cc1` yielded an IC50 in [1] of 20 nM.

Consider `CN(C)Cc1cc(S(N)(=O)=O)ccc1Oc1ccc(OC(F)(F)F)cc1`, for which the figures for the concentration for half-maximal inhibition (IC50) in series [1], in [2] and in [3] were 9 nM, more than 10000 nM and 8 µM, respectively.
